Results reported in patent US20250221411A1, “SUBSTITUTED BENZAMIDES AS HERBICIDES” (SYNGENTA CROP PROTECTION AG, priority 2021, published 2025).

Experiments:
Format in all cases: in vivo
Conditions in all cases: 250 g/h, evaluated after 13 days, five-point scale
[1] = test system: Echinochloa crus-galli (ECHCG); assay: Pre-emergence herbicidal glasshouse test, ECHCG
Description: (§1) Seeds of a variety of test species are sown in standard soil in pots Amaranthus retoflexus (AMARE), Abutilon theophrasti (ABUTH), Setaria faberi (SETFA), Echinochloa crus-galli (ECHCG), Ipomoea hederacea (IPOHE)). After cultivation for one day (pre-emergence) or after 8 days cultivation (post-emergence) under controlled conditions in a glasshouse (at 24/16° C., day/night; 14 hours light; 65% humidity), the plants are sprayed with an aqueous spray solution derived from the formulation of the technical active ingredient in acetone/water (50:50) solution containing 0.5% Tween 20 (polyoxyethelyene sorbitan monolaurate, CAS RN 9005-64-5). Compounds are applied at 250 g/h unless otherwise indicated. The test plants are then grown in a glasshouse under controlled conditions in a glasshouse (at 24/16° C., day/night; 14 hours light; 65% humidity) and watered twice daily. After 13 days for pre and post-emergence, the test is evaluated for the percentage damage caused to the plant. The biological activities are shown in the following table on a five-point scale (5=80-100%; 4=60-79%; 3=40-59%; 2=20-39%; 1=0-19%).

[2] = test system: Amaranthus retoflexus (AMARE); assay: Post-emergence herbicidal glasshouse test, AMARE
Description: as §1

[3] = test system: Abutilon theophrasti (ABUTH); assay: Post-emergence herbicidal glasshouse test, ABUTH
Description: as §1

[4] = test system: Setaria faberi (SETFA); assay: Post-emergence herbicidal glasshouse test, SETFA
Description: as §1

[5] = test system: Ipomoea hederacea (IPOHE); assay: Pre-emergence herbicidal glasshouse test, IPOHE
Description: as §1

[6] = test system: Abutilon theophrasti (ABUTH); assay: Pre-emergence herbicidal glasshouse test, ABUTH
Description: as §1

[7] = test system: Ipomoea hederacea (IPOHE); assay: Post-emergence herbicidal glasshouse test, IPOHE
Description: as §1

[8] = test system: Echinochloa crus-galli (ECHCG); assay: Post-emergence herbicidal glasshouse test, ECHCG
Description: as §1

[9] = test system: Amaranthus retoflexus (AMARE); assay: Pre-emergence herbicidal glasshouse test, AMARE
Description: as §1

[10] = test system: Setaria faberi (SETFA); assay: Pre-emergence herbicidal glasshouse test, SETFA
Description: as §1

CN(Cc1c(OC(F)(F)F)ccc(C(=O)Nc2nnnn2C)c1Cl)C(=O)C1CC1 [Compound 1.002]
percentage damage caused to the plant, PRE Application ECHCG [1]: 2 (2=20-39%)
percentage damage caused to the plant, POST Application AMARE [2]: 5 (5=80-100%)
percentage damage caused to the plant, POST Application ABUTH [3]: 5 (5=80-100%)
percentage damage caused to the plant, POST Application SETFA [4]: 5 (5=80-100%)
percentage damage caused to the plant, PRE Application IPOHE [5]: 1 (1=0-19%)
percentage damage caused to the plant, PRE Application ABUTH [6]: 3 (3=40-59%)
percentage damage caused to the plant, POST Application IPOHE [7]: 5 (5=80-100%)
percentage damage caused to the plant, POST Application ECHCG [8]: 5 (5=80-100%)
percentage damage caused to the plant, PRE Application AMARE [9]: 1 (1=0-19%)
percentage damage caused to the plant, PRE Application SETFA [10]: 2 (2=20-39%)

Cn1nnnc1NC(=O)c1ccc(OC(F)(F)F)c(CNC(=O)c2c(F)cccc2F)c1Cl [Compound 1.008]
percentage damage caused to the plant, PRE Application ECHCG [1]: 2 (2=20-39%)
percentage damage caused to the plant, POST Application ABUTH [3]: 5 (5=80-100%)
percentage damage caused to the plant, POST Application SETFA [4]: 4 (4=60-79%)
percentage damage caused to the plant, PRE Application IPOHE [5]: 1 (1=0-19%)
percentage damage caused to the plant, PRE Application ABUTH [6]: 5 (5=80-100%)
percentage damage caused to the plant, POST Application IPOHE [7]: 5 (5=80-100%)
percentage damage caused to the plant, POST Application ECHCG [8]: 5 (5=80-100%)
percentage damage caused to the plant, PRE Application AMARE [9]: 5 (5=80-100%)
percentage damage caused to the plant, PRE Application SETFA [10]: 2 (2=20-39%)

CCC(=O)NCc1c(OC(F)(F)F)ccc(C(=O)Nc2nnnn2C)c1Cl [Compound 1.003, 2-chloro-N-(1-methyltetrazol-5-yl)-3-[(propanoylamino)methyl]-4-(trifluoromethoxy)benzamide]
percentage damage caused to the plant, PRE Application ECHCG [1]: 1 (1=0-19%)
percentage damage caused to the plant, POST Application AMARE [2]: 5 (5=80-100%)
percentage damage caused to the plant, POST Application SETFA [4]: 5 (5=80-100%)
percentage damage caused to the plant, PRE Application IPOHE [5]: 3 (3=40-59%)
percentage damage caused to the plant, PRE Application ABUTH [6]: 5 (5=80-100%)
percentage damage caused to the plant, POST Application IPOHE [7]: 5 (5=80-100%)
percentage damage caused to the plant, POST Application ECHCG [8]: 5 (5=80-100%)
percentage damage caused to the plant, PRE Application AMARE [9]: 5 (5=80-100%)
percentage damage caused to the plant, PRE Application SETFA [10]: 4 (4=60-79%)

Cn1nnnc1NC(=O)c1ccc(OC(F)(F)F)c(CNC(=O)c2ccc(Cl)cc2)c1Cl [Compound 1.011]
percentage damage caused to the plant, PRE Application ECHCG [1]: 1 (1=0-19%)
percentage damage caused to the plant, POST Application AMARE [2]: 5 (5=80-100%)
percentage damage caused to the plant, POST Application ABUTH [3]: 5 (5=80-100%)
percentage damage caused to the plant, POST Application SETFA [4]: 2 (2=20-39%)
percentage damage caused to the plant, PRE Application IPOHE [5]: 1 (1=0-19%)
percentage damage caused to the plant, PRE Application ABUTH [6]: 5 (5=80-100%)
percentage damage caused to the plant, POST Application IPOHE [7]: 5 (5=80-100%)
percentage damage caused to the plant, POST Application ECHCG [8]: 5 (5=80-100%)
percentage damage caused to the plant, PRE Application AMARE [9]: 5 (5=80-100%)
percentage damage caused to the plant, PRE Application SETFA [10]: 1 (1=0-19%)

CC(=O)NCc1c(OC(F)(F)F)ccc(C(=O)Nc2nnnn2C)c1Cl [Compound 1.009]
percentage damage caused to the plant, PRE Application ECHCG [1]: 5 (5=80-100%)
percentage damage caused to the plant, POST Application AMARE [2]: 5 (5=80-100%)
percentage damage caused to the plant, POST Application ABUTH [3]: 5 (5=80-100%)
percentage damage caused to the plant, POST Application SETFA [4]: 5 (5=80-100%)
percentage damage caused to the plant, PRE Application IPOHE [5]: 4 (4=60-79%)
percentage damage caused to the plant, PRE Application ABUTH [6]: 5 (5=80-100%)
percentage damage caused to the plant, POST Application IPOHE [7]: 5 (5=80-100%)
percentage damage caused to the plant, POST Application ECHCG [8]: 5 (5=80-100%)
percentage damage caused to the plant, PRE Application AMARE [9]: 5 (5=80-100%)
percentage damage caused to the plant, PRE Application SETFA [10]: 5 (5=80-100%)

Cn1nnnc1NC(=O)c1ccc(OC(F)(F)F)c(CNC(=O)c2ccc(F)cc2F)c1Cl [Compound 1.010]
percentage damage caused to the plant, PRE Application ECHCG [1]: 1 (1=0-19%)
percentage damage caused to the plant, POST Application AMARE [2]: 5 (5=80-100%)
percentage damage caused to the plant, POST Application ABUTH [3]: 5 (5=80-100%)
percentage damage caused to the plant, POST Application SETFA [4]: 5 (5=80-100%)
percentage damage caused to the plant, PRE Application IPOHE [5]: 1 (1=0-19%)
percentage damage caused to the plant, PRE Application ABUTH [6]: 5 (5=80-100%)
percentage damage caused to the plant, POST Application IPOHE [7]: 5 (5=80-100%)
percentage damage caused to the plant, POST Application ECHCG [8]: 5 (5=80-100%)
percentage damage caused to the plant, PRE Application AMARE [9]: 5 (5=80-100%)
percentage damage caused to the plant, PRE Application SETFA [10]: 1 (1=0-19%)

CCCC(=O)NCc1c(OC(F)(F)F)ccc(C(=O)Nc2nnnn2CC)c1Cl [Compound 1.005]
percentage damage caused to the plant, PRE Application ECHCG [1]: 1 (1=0-19%)
percentage damage caused to the plant, POST Application AMARE [2]: 5 (5=80-100%)
percentage damage caused to the plant, POST Application ABUTH [3]: 5 (5=80-100%)
percentage damage caused to the plant, POST Application SETFA [4]: 5 (5=80-100%)
percentage damage caused to the plant, PRE Application IPOHE [5]: 1 (1=0-19%)
percentage damage caused to the plant, PRE Application ABUTH [6]: 5 (5=80-100%)
percentage damage caused to the plant, POST Application IPOHE [7]: 5 (5=80-100%)
percentage damage caused to the plant, PRE Application AMARE [9]: 5 (5=80-100%)
percentage damage caused to the plant, PRE Application SETFA [10]: 1 (1=0-19%)

CCC(=O)N(C)Cc1c(OC(F)(F)F)ccc(C(=O)Nc2nnnn2C)c1Cl [Compound 1.001]
percentage damage caused to the plant, PRE Application ECHCG [1]: 4 (4=60-79%)
percentage damage caused to the plant, POST Application AMARE [2]: 5 (5=80-100%)
percentage damage caused to the plant, POST Application ABUTH [3]: 5 (5=80-100%)
percentage damage caused to the plant, POST Application SETFA [4]: 5 (5=80-100%)
percentage damage caused to the plant, PRE Application IPOHE [5]: 1 (1=0-19%)
percentage damage caused to the plant, PRE Application ABUTH [6]: 5 (5=80-100%)
percentage damage caused to the plant, POST Application IPOHE [7]: 5 (5=80-100%)
percentage damage caused to the plant, POST Application ECHCG [8]: 5 (5=80-100%)
percentage damage caused to the plant, PRE Application AMARE [9]: 5 (5=80-100%)
percentage damage caused to the plant, PRE Application SETFA [10]: 3 (3=40-59%)
